Assays:
[1] = molecular target: Met (phospho-Met, HGF-stimulated PC-3 prostate cancer cells) (Homo sapiens (Human), UniProt P08581); experiment: Met autophosphorylation ELISA in PC-3 cells (Example F); assay type: cell-based; conditions: cellular activity; Met autophosphorylation ELISA in PC-3 cells; read-out: c-Met IC50
Outline: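 IC50 values derive from a 4-parameter logistic fit of phospho-Met (panTyr) sandwich ELISA signals in PC-3 lysates, scaled between DMSO and reference-inhibitor wells. Cells, starved 3 h in serum-free medium, had 1 h compound exposure (8 doses, 0.3% DMSO) before 10 min stimulation with 100 ng/mL HGF.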

[2] = molecular target: Human KDR (residues 790-1356) (Homo sapiens (Human), UniProt P35968); experiment: Human KDR kinase assay, HTRF KinEase (Example B-2); assay type: biochemical; conditions: protocol of Example B-2 (other compounds)
Human KDR (residues 790-1356), sequence (P35968 790-1356): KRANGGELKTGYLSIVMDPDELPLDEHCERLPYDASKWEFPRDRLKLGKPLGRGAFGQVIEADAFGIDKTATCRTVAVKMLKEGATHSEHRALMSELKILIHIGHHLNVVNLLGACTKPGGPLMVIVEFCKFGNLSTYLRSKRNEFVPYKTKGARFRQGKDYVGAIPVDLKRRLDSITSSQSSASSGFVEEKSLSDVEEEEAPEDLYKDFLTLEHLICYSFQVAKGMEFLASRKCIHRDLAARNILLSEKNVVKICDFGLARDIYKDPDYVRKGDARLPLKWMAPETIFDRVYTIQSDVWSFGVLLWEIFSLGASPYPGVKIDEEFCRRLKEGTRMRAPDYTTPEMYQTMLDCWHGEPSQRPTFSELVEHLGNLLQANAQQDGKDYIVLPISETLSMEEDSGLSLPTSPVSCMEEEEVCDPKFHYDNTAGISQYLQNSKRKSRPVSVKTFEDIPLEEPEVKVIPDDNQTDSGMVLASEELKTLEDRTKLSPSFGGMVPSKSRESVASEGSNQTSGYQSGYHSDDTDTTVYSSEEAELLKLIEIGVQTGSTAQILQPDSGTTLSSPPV
Outline: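 Human KDR residues 790-1356 (0.1 ng/well) in buffer with 5 mM MgCl2, 1 mM MnCl2, 1 mM DTT, biotinylated peptide substrate, ATP at Km (4.0 μM), 3% DMSO, 10 compound concentrations; 40 min, room temperature. EDTA stop, streptavidin-XL665/Eu-TK antibody HTRF read 665/620 nm; 4-parameter IC50.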

[3] = molecular target: KDR (phospho-KDR, VEGF165-stimulated HUVEC cells) (Homo sapiens (Human), UniProt P35968); experiment: KDR autophosphorylation ELISA in HUVEC cells (Example G); assay type: cell-based; conditions: cellular activity; KDR autophosphorylation ELISA in HUVEC cells
KDR (phospho-KDR, VEGF165-stimulated HUVEC cells), sequence (P35968 20-1356): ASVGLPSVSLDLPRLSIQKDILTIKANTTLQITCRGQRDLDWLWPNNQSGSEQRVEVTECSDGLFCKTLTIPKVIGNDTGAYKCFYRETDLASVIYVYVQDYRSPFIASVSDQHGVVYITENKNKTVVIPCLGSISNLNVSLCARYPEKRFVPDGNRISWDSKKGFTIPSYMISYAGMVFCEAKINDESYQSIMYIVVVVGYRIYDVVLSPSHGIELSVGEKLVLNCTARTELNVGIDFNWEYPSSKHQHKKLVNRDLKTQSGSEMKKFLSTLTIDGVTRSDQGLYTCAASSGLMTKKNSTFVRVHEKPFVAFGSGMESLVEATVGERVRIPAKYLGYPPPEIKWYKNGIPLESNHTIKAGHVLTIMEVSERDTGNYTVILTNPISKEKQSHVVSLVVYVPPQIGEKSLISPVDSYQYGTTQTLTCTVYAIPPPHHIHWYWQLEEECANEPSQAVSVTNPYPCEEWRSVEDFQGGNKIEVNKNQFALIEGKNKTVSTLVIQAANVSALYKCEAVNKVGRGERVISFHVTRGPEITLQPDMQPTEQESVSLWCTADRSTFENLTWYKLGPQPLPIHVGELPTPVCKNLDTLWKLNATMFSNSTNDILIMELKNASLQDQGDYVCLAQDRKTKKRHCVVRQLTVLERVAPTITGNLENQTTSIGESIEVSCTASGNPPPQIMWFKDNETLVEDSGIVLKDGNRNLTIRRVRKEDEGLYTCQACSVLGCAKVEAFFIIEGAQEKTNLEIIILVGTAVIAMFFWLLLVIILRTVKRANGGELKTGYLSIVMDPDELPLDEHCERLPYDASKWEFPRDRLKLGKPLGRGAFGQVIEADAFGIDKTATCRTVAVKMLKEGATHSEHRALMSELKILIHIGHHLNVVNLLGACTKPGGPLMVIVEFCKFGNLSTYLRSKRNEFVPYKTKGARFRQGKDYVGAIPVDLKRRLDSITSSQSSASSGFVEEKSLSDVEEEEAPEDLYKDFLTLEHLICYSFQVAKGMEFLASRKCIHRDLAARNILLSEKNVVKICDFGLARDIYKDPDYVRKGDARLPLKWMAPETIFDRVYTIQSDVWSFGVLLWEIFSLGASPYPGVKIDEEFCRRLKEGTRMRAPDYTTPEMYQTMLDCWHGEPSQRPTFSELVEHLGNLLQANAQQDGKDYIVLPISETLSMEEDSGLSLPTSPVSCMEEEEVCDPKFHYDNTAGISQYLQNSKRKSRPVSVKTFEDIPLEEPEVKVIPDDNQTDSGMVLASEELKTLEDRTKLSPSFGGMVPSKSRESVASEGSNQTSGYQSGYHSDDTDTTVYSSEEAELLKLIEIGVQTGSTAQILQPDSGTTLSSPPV
Outline: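 Cells seeded, grown 24 h at 37 °C, starved 24 h serum-free; cpd 8-pt curve, 0.3% DMSO, 1 h; VEGF165 100 ng/mL, 5 min; cold PBS wash, lysis with orthovanadate and protease/phosphatase inhibitors; pKDR ELISA; IC50 by 4-parameter logistic regression.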

[4] = molecular target: Human MER (residues 528-999) (Homo sapiens (Human), UniProt Q12866); experiment: Human Mer kinase assay, HTRF KinEase (Example C-2); assay type: biochemical; conditions: protocol of Example C-2 (other compounds)
Human MER (residues 528-999), sequence (Q12866 528-999): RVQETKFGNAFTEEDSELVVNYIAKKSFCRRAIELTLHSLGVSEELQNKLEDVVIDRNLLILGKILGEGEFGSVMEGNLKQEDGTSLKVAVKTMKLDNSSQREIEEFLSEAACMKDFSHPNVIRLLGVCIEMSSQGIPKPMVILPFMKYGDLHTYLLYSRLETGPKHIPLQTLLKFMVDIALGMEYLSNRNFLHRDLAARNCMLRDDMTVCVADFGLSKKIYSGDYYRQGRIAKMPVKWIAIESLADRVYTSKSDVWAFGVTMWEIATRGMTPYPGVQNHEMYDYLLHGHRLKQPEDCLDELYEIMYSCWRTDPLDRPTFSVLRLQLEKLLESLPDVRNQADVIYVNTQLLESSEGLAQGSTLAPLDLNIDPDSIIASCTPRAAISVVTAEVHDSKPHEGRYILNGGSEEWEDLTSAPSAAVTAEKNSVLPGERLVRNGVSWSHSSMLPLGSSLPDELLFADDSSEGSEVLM
Outline: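 IC50 values from 10 concentrations via 4-parameter logistic fit of […], with DMSO as 100% and 1 μM reference compound as 0% activity. Reaction: MER kinase domain 528-999, 1 ng/well, 40 μM ATP (Km), biotin peptide, 5 mM MgCl2, 1 mM DTT, 3% DMSO, room temperature 60 min; HTRF streptavidin-XL665/Eu-antibody detection.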

Met (phospho-Met, HGF-stimulated PC-3 prostate cancer cells), sequence (P08581 25-1390): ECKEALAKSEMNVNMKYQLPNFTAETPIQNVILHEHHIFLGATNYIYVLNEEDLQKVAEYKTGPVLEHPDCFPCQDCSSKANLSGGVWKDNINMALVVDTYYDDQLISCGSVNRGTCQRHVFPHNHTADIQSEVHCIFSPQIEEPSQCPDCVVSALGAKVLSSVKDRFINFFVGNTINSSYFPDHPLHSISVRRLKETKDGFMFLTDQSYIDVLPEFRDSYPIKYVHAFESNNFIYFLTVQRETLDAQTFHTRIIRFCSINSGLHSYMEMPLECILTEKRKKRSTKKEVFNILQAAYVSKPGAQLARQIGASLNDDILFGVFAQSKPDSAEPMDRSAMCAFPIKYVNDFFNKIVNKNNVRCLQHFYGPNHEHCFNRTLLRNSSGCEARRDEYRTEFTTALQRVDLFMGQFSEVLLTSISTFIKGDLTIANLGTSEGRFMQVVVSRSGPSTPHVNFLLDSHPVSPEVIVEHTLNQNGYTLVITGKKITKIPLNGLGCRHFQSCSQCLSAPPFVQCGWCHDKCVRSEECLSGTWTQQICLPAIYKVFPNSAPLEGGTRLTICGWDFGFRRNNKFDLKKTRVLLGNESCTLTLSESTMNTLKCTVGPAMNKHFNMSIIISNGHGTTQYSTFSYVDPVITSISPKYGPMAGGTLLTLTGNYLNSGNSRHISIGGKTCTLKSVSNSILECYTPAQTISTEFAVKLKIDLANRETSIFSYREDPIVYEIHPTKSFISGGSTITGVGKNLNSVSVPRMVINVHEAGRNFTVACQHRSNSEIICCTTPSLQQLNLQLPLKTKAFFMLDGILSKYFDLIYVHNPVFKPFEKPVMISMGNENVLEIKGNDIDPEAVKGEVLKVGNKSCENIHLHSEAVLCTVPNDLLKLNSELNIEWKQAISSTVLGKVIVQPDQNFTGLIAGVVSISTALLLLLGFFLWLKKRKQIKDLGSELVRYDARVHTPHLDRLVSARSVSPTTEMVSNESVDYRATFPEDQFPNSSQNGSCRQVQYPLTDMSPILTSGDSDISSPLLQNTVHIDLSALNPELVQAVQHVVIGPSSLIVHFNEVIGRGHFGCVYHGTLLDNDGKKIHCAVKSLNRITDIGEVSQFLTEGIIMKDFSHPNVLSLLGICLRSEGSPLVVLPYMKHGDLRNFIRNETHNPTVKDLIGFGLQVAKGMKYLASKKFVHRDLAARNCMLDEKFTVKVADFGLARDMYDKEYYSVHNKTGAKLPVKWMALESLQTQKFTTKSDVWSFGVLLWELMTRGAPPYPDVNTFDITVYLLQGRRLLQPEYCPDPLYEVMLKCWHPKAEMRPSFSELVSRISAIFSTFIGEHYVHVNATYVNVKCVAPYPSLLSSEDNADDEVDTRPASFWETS

Compound: COCCOc1cc2nccc(Oc3ccc(NC(=O)c4c(C)nc(C)c(-c5ccc(F)cc5)c4O)cc3F)c2nc1OC [Compound 432, N-[3-fluoro-4-[[6-methoxy-7-(2-methoxyethoxy)-1,5-naphthyridin-4-yl]oxy]phenyl]-5-(4-fluorophenyl)-4-hydroxy-2,6-dimethylpyridine-3-carboxamide]
- IC50 [1]: < 100 nM
- IC50 [2]: < 100 nM
- IC50 [3]: < 100 nM
- IC50 [4]: < 100 nM

Compound: COc1cc2nccc(Oc3ccc(NC(=O)c4cn(C)c(C#N)c(-c5ccc(F)cc5)c4=O)cc3F)c2nc1OC [Compound 77, 6-Cyano-N-[4-[(6,7-dimethoxy-1,5-naphthyridin-4-yl)oxy]-3-fluorophenyl]-5-(4-fluorophenyl)-1-methyl-4-oxopyridine-3-carboxamide]
- IC50 [1]: < 100 nM
- IC50 [2]: > 300 nM
- IC50 [3]: > 300 nM
- IC50 [4]: < 100 nM

Compound: C=Cc1cc2nccc(Oc3ccc(NC(=O)c4cnc(C)c(-c5ccc(F)cc5C)c4O)cc3F)c2nc1OC [Compound 423, N-[4-[(7-ethenyl-6-methoxy-1,5-naphthyridin-4-yl)oxy]-3-fluorophenyl]-5-(4-fluoro-2-methylphenyl)-4-hydroxy-6-methylpyridine-3-carboxamide]
- IC50 [1]: < 100 nM
- IC50 [2]: > 300 nM
- IC50 [3]: < 100 nM
- IC50 [4]: < 100 nM

Compound: COc1cc2nccc(Oc3ccc(NC(=O)c4cn(C)c(C)c(-c5ccc(F)cc5C)c4=O)cc3F)c2nc1OC [Compound 75, N-[4-[(6,7-Dimethoxy-1,5-naphthyridin-4-yl)oxy]-3-fluorophenyl]-5-(4-fluoro-2-methylphenyl)-1,6-dimethyl-4-oxopyridine-3-carboxamide]
- IC50 [1]: < 100 nM
- IC50 [2]: 100 to 300 nM
- IC50 [3]: < 100 nM
- IC50 [4]: < 100 nM

Compound: COc1cnc2c(Oc3ccc(NC(=O)c4ccc(C)n(-c5ccc(F)cc5)c4=O)cc3F)ccnc2c1 [Compound 83, N-[3-Fluoro-4-[(7-methoxy-1,5-naphthyridin-4-yl)oxy]phenyl]-1-(4-fluorophenyl)-6-methyl-2-oxopyridine-3-carboxamide]
- IC50 [1]: < 100 nM
- IC50 [2]: < 100 nM
- IC50 [3]: < 100 nM
- IC50 [4]: < 100 nM

Compound: CCc1cnc2c(Oc3ccc(NC(=O)c4cnc(C)c(-c5ccc(F)cc5)c4O)cc3F)ccnc2c1 [Compound 418, N-[4-[(7-ethyl-1,5-naphthyridin-4-yl)oxy]-3-fluorophenyl]-5-(4-fluorophenyl)-4-hydroxy-6-methylpyridine-3-carboxamide]
- IC50 [1]: < 100 nM
- IC50 [2]: 100 to 300 nM
- IC50 [3]: < 100 nM
- IC50 [4]: < 100 nM

Compound: CCc1cc2nccc(Oc3ccc(NC(=O)c4cnc(C)c(-c5ccc(F)cc5)c4O)cc3F)c2nc1OC [Compound 420, N-[4-[(7-ethyl-6-methoxy-1,5-naphthyridin-4-yl)oxy]-3-fluorophenyl]-5-(4-fluorophenyl)-4-hydroxy-6-methylpyridine-3-carboxamide]
- IC50 [1]: < 100 nM
- IC50 [2]: 100 to 300 nM
- IC50 [3]: < 100 nM
- IC50 [4]: < 100 nM

Compound: COc1cnc2c(Oc3ccc(NC(=O)c4c(C)nc(C)c(-c5ccc(F)cc5)c4O)cc3F)ccnc2c1 [Compound 66, N-[3-Fluoro-4-[(7-methoxy-1,5-naphthyridin-4-yl)oxy]phenyl]-5-(4-fluorophenyl)-4-hydroxy-2,6-dimethylpyridine-3-carboxamide]
- IC50 [1]: < 100 nM
- IC50 [2]: < 100 nM
- IC50 [3]: < 100 nM
- IC50 [4]: < 100 nM

Compound: COc1cc2nccc(Oc3ncc(NC(=O)c4cn(-c5cnn(C)c5)cc(-c5ccc(F)cc5)c4=O)cc3F)c2cc1OC [Compound 401, N-[6-(6,7-dimethoxyquinolin-4-yl)oxy-5-fluoropyridin-3-yl]-5-(4-fluorophenyl)-1-(1-methylpyrazol-4-yl)-4-oxopyridine-3-carboxamide]
- IC50 [1]: < 100 nM
- IC50 [2]: > 300 nM
- IC50 [3]: > 300 nM
- IC50 [4]: < 100 nM

Compound: Cc1cc(F)ccc1-c1c(C)nnc(C(=O)Nc2ccc(Oc3ccnc4cc(C)c(F)nc34)c(F)c2)c1O [Compound 430, N-[3-fluoro-4-[(6-fluoro-7-methyl-1,5-naphthyridin-4-yl)oxy]phenyl]-5-(4-fluoro-2-methylphenyl)-4-hydroxy-6-methylpyridazine-3-carboxamide]
- IC50 [1]: < 100 nM
- IC50 [2]: > 300 nM
- IC50 [3]: > 300 nM
- IC50 [4]: < 100 nM

Compound: COc1cnc2c(Oc3ccc(NC(=O)c4ncc(C)n(-c5ccc(F)cc5)c4=O)cc3F)ccnc2c1 [Compound 94, N-[3-Fluoro-4-[(7-methoxy-1,5-naphthyridin-4-yl)oxy]phenyl]-4-(4-fluorophenyl)-5-methyl-3-oxopyrazine-2-carboxamide]
- IC50 [1]: < 100 nM
- IC50 [2]: > 300 nM
- IC50 [3]: > 300 nM
- IC50 [4]: < 100 nM

Compound: COc1ccc2nccc(Oc3ccc(NC(=O)c4c(C)nc(C)c(-c5ccc(F)cc5C)c4O)cc3F)c2n1 [Compound 70, N-[3-Fluoro-4-[(6-methoxy-1,5-naphthyridin-4-yl)oxy]phenyl]-5-(4-fluoro-2-methylphenyl)-4-hydroxy-2,6-dimethylpyridine-3-carboxamide]
- IC50 [1]: < 100 nM
- IC50 [2]: 100 to 300 nM
- IC50 [3]: < 100 nM
- IC50 [4]: < 100 nM

Compound: COc1cc2nccc(Oc3ccc(NC(=O)c4cn(C5CC5)c(C)c(-c5ccc(F)cc5C)c4=O)cc3F)c2nc1OC [Compound 439, 1-cyclopropyl-N-[4-[(6,7-dimethoxy-1,5-naphthyridin-4-yl)oxy]-3-fluorophenyl]-5-(4-fluoro-2-methylphenyl)-6-methyl-4-oxopyridine-3-carboxamide]
- IC50 [1]: < 100 nM
- IC50 [2]: > 300 nM
- IC50 [3]: > 300 nM
- IC50 [4]: < 100 nM

Compound: COc1cc2nccc(Oc3ccc(NC(=O)c4ncc(C)n(-c5ccc(F)cc5)c4=O)cc3F)c2nc1OC [Compound 93, N-[4-[(6,7-Dimethoxy-1,5-naphthyridin-4-yl)oxy]-3-fluorophenyl]-4-(4-fluorophenyl)-5-methyl-3-oxopyrazine-2-carboxamide]
- IC50 [1]: < 100 nM
- IC50 [2]: < 100 nM
- IC50 [3]: < 100 nM
- IC50 [4]: < 100 nM

Compound: COc1cc2nccc(Oc3ccc(NC(=O)c4cn(-c5cn[nH]c5)cc(-c5ccc(F)cc5)c4=O)cc3F)c2nc1OC [Compound 62, N-[4-[(6,7-Dimethoxy-1,5-naphthyridin-4-yl)oxy]-3-fluorophenyl]-5-(4-fluorophenyl)-4-oxo-1-(1H-pyrazol-4-yl)pyridine-3-carboxamide]
- IC50 [1]: < 100 nM
- IC50 [2]: > 300 nM
- IC50 [3]: > 300 nM
- IC50 [4]: < 100 nM

Compound: COc1cc2nccc(Oc3ccc(NC(=O)c4c(C)nc(O)c(-c5ccc(F)cc5)c4O)cc3F)c2nc1OC [Compound 443, N-[4-[(6,7-dimethoxy-1,5-naphthyridin-4-yl)oxy]-3-fluorophenyl]-5-(4-fluorophenyl)-4,6-dihydroxy-2-methylpyridine-3-carboxamide]
- IC50 [1]: 100 to 300 nM
- IC50 [2]: < 100 nM
- IC50 [3]: > 300 nM
- IC50 [4]: < 100 nM

Compound: COc1cc2nccc(Oc3ccc(NC(=O)c4nc(C)c(C)n(-c5ccc(F)cc5)c4=O)cc3F)c2nc1OC [Compound 95, N-[4-[(6,7-Dimethoxy-1,5-naphthyridin-4-yl)oxy]-3-fluorophenyl]-4-(4-fluorophenyl)-5,6-dimethyl-3-oxopyrazine-2-carboxamide]
- IC50 [1]: < 100 nM
- IC50 [2]: 100 to 300 nM
- IC50 [3]: > 300 nM
- IC50 [4]: < 100 nM

Compound: COc1cc2nccc(Oc3ccc(NC(=O)c4cn(C)c(CF)c(-c5ccc(F)cc5)c4=O)cc3F)c2nc1OC [Compound 73, N-[4-[(6,7-Dimethoxy-1,5-naphthyridin-4-yl)oxy]-3-fluorophenyl]-6-(fluoromethyl)-5-(4-fluorophenyl)-1-methyl-4-oxopyridine-3-carboxamide]
- IC50 [1]: < 100 nM
- IC50 [2]: 100 to 300 nM
- IC50 [3]: < 100 nM
- IC50 [4]: < 100 nM

Compound: CCOc1c(-c2ccc(F)cc2)cnc(C)c1C(=O)Nc1ccc(Oc2ccnc3cc(OC)c(OC)nc23)c(F)c1 [Compound 403, N-[4-[(6,7-dimethoxy-1,5-naphthyridin-4-yl)oxy]-3-fluorophenyl]-4-ethoxy-5-(4-fluorophenyl)-2-methylpyridine-3-carboxamide]
- IC50 [1]: < 100 nM
- IC50 [2]: > 300 nM
- IC50 [3]: 100 to 300 nM
- IC50 [4]: < 100 nM

Compound: COc1cc2nccc(Oc3ccc(NC(=O)c4cnc(C)c(-c5ccc(F)cc5)c4O)cc3F)c2nc1OC(C)C [Compound 415, N-[3-fluoro-4-[(7-methoxy-6-propan-2-yloxy-1,5-naphthyridin-4-yl)oxy]phenyl]-5-(4-fluorophenyl)-4-hydroxy-6-methylpyridine-3-carboxamide]
- IC50 [1]: < 100 nM
- IC50 [2]: 100 to 300 nM
- IC50 [3]: < 100 nM
- IC50 [4]: < 100 nM
